Legend:
Format in all cases: in vitro ADME
Settings in all cases: colchicine 25 µM, NADPH 1 mM, CYP 2 pmol/mL, PBS pH 7.4; mean ± SD (n = 2)
CYP2E1 = target: T1, CYP2E1 (Homo sapiens, UniProt P05181); assay: Colchicine metabolism by cDNA-expressed recombinant CYP2E1
T1 construct: purchased Research Institute for Liver Diseases Co., Ltd. (Shanghai, China)
Protocol: (§1) Pre-cooled acetonitrile was used to terminate the reaction, and then centrifugation (4 °C, 12,000 rpm, 20 min) was performed to obtain the sample.
(§2) All samples were analyzed as shown in [17] and are briefly described in Supporting Information. […]
(§3) Supplementary materials and methods
(§4) Reference numbers refer to the main text list
(§5) UHPLC‐Q exactive plus MS Analysis
(§6) All samples were analyzed on a liquid chromatography system including a Vanquish autosampler, Vanquish detector, Vanquish pump (Thremo Fisher Scientific, Santa Clara, CA). Samples were separated on an ACQUITY UPLC HSS T3 column (2.1×100 mm, […], Waters, USA). The injection volume: 5 μL, and the flow rate was 0.3 mL/min.
(§7) Phase A was H2O containing 0.01% formic acid, and phase B was acetonitrile containing 0.01% formic acid. The elution gradient was as follows: 0‐12 mi n, 2‐98% B; 12‐14 min, 2% A; 14‐16 min, 98% A. Other parameters are as follows: column temperature 45 ℃ , flow rate of collision gas and dry gas 9 L/min. Capillary voltage 3.5 kV, temperature 350 ℃ , atomizer pressure 35 psi. Vanquish UHPLC‐Q Exactive plus MS (Thermo Fisher, USA) was collected in both positive modes, operating in full scan mode with 60‐900 m/z. […]

CYP4A11 = target: T2, CYP4A11 (Homo sapiens, UniProt Q02928); assay: Colchicine metabolism by cDNA-expressed recombinant CYP4A11
T2 construct: purchased Research Institute for Liver Diseases Co., Ltd. (Shanghai, China)
T2 sequence (Q02928 5-519): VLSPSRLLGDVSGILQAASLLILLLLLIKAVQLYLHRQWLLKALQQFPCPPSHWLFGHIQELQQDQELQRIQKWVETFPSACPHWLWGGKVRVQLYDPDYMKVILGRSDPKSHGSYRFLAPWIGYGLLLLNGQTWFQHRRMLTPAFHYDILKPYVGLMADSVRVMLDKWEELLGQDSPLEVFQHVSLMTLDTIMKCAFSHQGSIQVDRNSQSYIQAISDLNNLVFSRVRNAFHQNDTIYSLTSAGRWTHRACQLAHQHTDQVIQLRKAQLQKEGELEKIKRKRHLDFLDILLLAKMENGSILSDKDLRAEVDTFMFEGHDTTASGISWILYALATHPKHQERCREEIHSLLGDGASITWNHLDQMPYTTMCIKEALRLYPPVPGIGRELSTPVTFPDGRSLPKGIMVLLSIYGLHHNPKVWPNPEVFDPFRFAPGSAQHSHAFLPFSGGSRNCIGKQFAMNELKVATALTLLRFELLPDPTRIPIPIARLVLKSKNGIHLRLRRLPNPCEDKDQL
Protocol: as §1, §2, §3, §4, §5, §6, §7

CYP1B1 = target: T3, CYP1B1 (Homo sapiens, UniProt Q16678); assay: Colchicine metabolism by cDNA-expressed recombinant CYP1B1
T3 construct: purchased Research Institute for Liver Diseases Co., Ltd. (Shanghai, China)
T3 sequence (Q16678 1-543): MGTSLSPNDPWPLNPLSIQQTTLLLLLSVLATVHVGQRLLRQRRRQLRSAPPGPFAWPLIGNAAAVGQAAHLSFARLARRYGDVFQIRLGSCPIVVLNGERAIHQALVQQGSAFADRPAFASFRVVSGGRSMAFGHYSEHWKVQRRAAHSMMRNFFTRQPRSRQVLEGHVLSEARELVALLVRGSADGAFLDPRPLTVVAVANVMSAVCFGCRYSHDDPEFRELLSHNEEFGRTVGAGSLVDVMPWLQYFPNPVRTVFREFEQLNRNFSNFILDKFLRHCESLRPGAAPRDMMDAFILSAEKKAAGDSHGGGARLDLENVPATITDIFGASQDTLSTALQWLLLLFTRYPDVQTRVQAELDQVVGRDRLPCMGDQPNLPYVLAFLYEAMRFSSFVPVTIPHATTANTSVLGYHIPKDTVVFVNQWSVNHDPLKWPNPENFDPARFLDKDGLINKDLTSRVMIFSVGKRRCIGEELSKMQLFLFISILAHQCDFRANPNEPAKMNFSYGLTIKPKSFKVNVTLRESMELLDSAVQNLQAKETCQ
Protocol: as §1, §2, §3, §4, §5, §6, §7

CYP1A2 = target: T4, CYP1A2 (Homo sapiens, UniProt P05177); assay: Colchicine metabolism by cDNA-expressed recombinant CYP1A2
T4 construct: purchased Research Institute for Liver Diseases Co., Ltd. (Shanghai, China)
T4 sequence (P05177 1-516): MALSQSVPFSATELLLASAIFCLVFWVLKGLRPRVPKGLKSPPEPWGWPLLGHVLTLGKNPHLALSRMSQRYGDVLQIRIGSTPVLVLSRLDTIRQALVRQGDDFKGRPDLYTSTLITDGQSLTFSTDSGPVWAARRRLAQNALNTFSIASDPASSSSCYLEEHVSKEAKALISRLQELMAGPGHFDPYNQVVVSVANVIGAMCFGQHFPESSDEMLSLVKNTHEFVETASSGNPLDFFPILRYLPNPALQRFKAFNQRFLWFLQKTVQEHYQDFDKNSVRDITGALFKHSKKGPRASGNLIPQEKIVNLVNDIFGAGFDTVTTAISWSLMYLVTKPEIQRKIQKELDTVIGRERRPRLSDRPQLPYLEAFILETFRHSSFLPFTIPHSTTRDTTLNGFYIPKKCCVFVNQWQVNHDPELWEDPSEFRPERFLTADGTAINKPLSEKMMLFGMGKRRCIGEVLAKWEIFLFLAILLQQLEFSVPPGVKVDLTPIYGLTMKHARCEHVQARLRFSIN
Protocol: as §1, §2, §3, §4, §5, §6, §7

CYP1A1 = target: T5, CYP1A1 (Homo sapiens, UniProt P04798); assay: Colchicine metabolism by cDNA-expressed recombinant CYP1A1
T5 construct: purchased Research Institute for Liver Diseases Co., Ltd. (Shanghai, China)
T5 sequence (P04798 1-512): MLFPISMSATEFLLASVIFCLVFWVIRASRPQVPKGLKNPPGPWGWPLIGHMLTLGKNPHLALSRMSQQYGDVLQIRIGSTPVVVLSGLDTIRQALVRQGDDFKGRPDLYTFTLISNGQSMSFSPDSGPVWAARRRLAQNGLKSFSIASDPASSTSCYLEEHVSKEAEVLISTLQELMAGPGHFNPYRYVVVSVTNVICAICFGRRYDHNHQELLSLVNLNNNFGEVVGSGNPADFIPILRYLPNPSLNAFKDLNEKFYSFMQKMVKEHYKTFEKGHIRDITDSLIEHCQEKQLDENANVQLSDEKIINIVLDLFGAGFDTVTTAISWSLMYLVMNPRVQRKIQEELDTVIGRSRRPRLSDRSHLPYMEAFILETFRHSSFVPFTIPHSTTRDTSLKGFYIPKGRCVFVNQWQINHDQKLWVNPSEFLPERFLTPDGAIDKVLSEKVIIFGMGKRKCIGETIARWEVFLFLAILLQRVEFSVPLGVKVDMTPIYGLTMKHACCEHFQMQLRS
Protocol: as §1, §2, §3, §4, §5, §6, §7

CYP3A5 = target: T6, CYP3A5 (Homo sapiens, UniProt P20815); assay: Colchicine metabolism by cDNA-expressed recombinant CYP3A5
T6 construct: purchased Research Institute for Liver Diseases Co., Ltd. (Shanghai, China)
T6 sequence (P20815 whole entry): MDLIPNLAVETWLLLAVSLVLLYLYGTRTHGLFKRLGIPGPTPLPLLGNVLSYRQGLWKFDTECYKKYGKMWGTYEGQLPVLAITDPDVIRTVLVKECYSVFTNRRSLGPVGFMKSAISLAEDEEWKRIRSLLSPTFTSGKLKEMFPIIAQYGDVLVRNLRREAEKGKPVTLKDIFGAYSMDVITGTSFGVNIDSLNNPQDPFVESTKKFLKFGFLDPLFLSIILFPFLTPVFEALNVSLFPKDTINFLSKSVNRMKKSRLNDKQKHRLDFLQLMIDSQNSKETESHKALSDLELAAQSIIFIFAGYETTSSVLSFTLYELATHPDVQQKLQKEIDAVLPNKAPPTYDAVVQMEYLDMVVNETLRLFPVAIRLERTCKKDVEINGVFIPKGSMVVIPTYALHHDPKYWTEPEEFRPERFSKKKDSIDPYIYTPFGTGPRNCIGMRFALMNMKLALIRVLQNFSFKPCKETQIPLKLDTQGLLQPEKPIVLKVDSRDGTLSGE
Protocol: as §1, §2, §3, §4, §5, §6, §7

CYP2C19 = target: T7, CYP2C19 (Homo sapiens, UniProt P33261); assay: Colchicine metabolism by cDNA-expressed recombinant CYP2C19
T7 construct: purchased Research Institute for Liver Diseases Co., Ltd. (Shanghai, China)
T7 sequence (P33261 whole entry): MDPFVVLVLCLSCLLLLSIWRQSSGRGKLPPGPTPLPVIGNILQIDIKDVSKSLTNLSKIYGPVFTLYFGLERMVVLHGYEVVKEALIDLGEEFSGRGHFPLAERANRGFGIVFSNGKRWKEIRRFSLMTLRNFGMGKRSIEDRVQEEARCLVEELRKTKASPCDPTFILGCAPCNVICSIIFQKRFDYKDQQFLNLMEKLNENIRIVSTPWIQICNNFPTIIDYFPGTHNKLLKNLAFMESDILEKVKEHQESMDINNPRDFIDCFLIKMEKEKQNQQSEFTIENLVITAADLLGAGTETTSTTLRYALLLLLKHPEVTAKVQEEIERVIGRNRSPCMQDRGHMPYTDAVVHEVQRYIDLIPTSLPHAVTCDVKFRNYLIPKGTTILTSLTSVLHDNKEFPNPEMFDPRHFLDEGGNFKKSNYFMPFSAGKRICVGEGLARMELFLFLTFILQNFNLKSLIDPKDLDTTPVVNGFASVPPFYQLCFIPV
Protocol: as §1, §2, §3, §4, §5, §6, §7

T1 sequence (P05181 whole entry): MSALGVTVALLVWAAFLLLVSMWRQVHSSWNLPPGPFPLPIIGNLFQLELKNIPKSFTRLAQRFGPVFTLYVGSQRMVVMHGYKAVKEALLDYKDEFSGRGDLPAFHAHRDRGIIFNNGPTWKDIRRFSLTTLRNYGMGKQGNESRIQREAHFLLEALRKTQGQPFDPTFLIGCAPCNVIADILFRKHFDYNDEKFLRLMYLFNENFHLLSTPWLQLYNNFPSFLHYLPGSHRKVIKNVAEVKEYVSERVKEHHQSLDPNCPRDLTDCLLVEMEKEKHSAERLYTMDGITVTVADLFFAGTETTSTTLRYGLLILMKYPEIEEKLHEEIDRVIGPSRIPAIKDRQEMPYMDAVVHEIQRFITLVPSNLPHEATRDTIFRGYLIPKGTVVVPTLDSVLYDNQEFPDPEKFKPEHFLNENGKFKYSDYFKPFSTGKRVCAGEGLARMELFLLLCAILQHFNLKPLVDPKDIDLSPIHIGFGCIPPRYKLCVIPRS

| SMILES | peak area of the metabolite after incubation with CYP2E1 as a percentage of the total peak areas from all the CYPs (CYP2E1) [%] | peak area of the metabolite after incubation with CYP4A11 as a percentage of the total peak areas from all the CYPs (CYP4A11) [%] | peak area of the metabolite after incubation with CYP1B1 as a percentage of the total peak areas from all the CYPs (CYP1B1) [%] | peak area of the metabolite after incubation with CYP1A2 as a percentage of the total peak areas from all the CYPs (CYP1A2) [%] | peak area of the metabolite after incubation with CYP1A1 as a percentage of the total peak areas from all the CYPs (CYP1A1) [%] | peak area of the metabolite after incubation with CYP3A5 as a percentage of the total peak areas from all the CYPs (CYP3A5) [%] | peak area of the metabolite after incubation with CYP2C19 as a percentage of the total peak areas from all the CYPs (CYP2C19) [%] |
| --- | --- | --- | --- | --- | --- | --- | --- |
| COc1cc2c(c(OC)c1OC)-c1ccc(OC)c(=O)cc1C=CC2 [M6] | 8.09 ± 0.37 | 6.01 ± 0.22 | 7.14 ± 0.77 | 8.69 ± 0.17 | 8.78 ± 1.10 | 8.06 ± 0.09 | 6.74 ± 0.36 |
| COc1cc2c(c(OC)c1OC)-c1ccc(O)c(=O)cc1[C@@H](NC(C)=O)CC2 [M4] | 6.93 ± 0.40 | 6.78 ± 0.33 | 7.00 ± 0.10 | 6.72 ± 0.44 | 6.99 ± 0.30 | 7.36 ± 0.44 | 6.69 ± 1.91 |
| COc1c(O)cc2c(c1OC)-c1ccc(OC)c(=O)cc1[C@@H](NC(C)=O)C=C2 [M5] | 7.32 ± 0.00 | 8.01 ± 0.00 | 7.27 ± 2.20 | 8.33 ± 0.00 | 6.87 ± 0.00 | 8.12 ± 0.00 | 8.63 ± 1.05 |
| COc1cc2c(c(O)c1OC)-c1ccc(OC)c(=O)cc1[C@@H](NC(C)=O)CC2 [M2] | 3.69 ± 0.51 | 3.57 ± 0.39 | 2.53 ± 0.65 | 0.00 ± 0.00 | 4.51 ± 2.24 | 12.14 ± 0.15 | 6.27 ± 0.30 |
| COc1cc2c(c(OC)c1O)-c1ccc(OC)c(=O)cc1[C@@H](NC(C)=O)CC2 [M1] | 4.77 ± 2.02 | 6.48 ± 0.33 | 4.56 ± 1.73 | 6.36 ± 0.19 | 3.91 ± 3.16 | 9.93 ± 0.49 | 8.35 ± 0.65 |
| COc1c(O)cc2c(c1O)-c1ccc(OC)c(=O)cc1[C@@H](NC(C)=O)CC2 [M8] | 6.78 ± 0.72 | 7.65 ± 1.95 | 7.48 ± 2.17 | 8.67 ± 3.80 | 9.32 ± 5.12 | 11.08 ± 1.09 | 7.66 ± 2.52 |
